{"source": "PubChem BioAssay AID248", "about": "(DTP/NCI, 2004)", "test_system": "L1210 leukemia ip in BDF1 mice, survival T/C", "experiment": "NCI In Vivo Anticancer Drug Screen. Data for tumor model L1210 Leukemia (intraperitoneal) in B6D2F1 (BDF1) mice", "conditions": "higher = longer survival", "how_it_was_run": "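Tumor cells were implanted, animals were treated, and survival was followed. The result divides the treated measurement by the vehicle-control measurement.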", "note": "Several values for one entry are separate records, joined by “and”; a condition that tells them apart may be missing. Equal values may be shown once. Toxic doses and inconclusive results are not listed.", "data": [{"smiles": "O=C(CCBr)N1CCN(C(=O)CCBr)CC1", "values": [{"measurement": "T/C", "setting": "endpoint: mean survival time, dose: 1.33 mg/kg/injection, schedule: Q#B X Z (ip), vehicle: carboxymethylcellulose (CMC)", "value": "86 % of control"}, {"measurement": "T/C", "setting": "endpoint: mean survival time, dose: 2.66 mg/kg/injection, schedule: Q#B X Z (ip), vehicle: carboxymethylcellulose (CMC)", "value": "108 % of control"}, {"measurement": "T/C", "setting": "endpoint: mean survival time, dose: 3.2 mg/kg/injection, schedule: Q01DX Z (oral), vehicle: carboxymethylcellulose (CMC)", "value": "100 % of control"}, {"measurement": "T/C", "setting": "endpoint: mean survival time, dose: 5.33 mg/kg/injection, schedule: Q#B X Z (ip), vehicle: carboxymethylcellulose (CMC)", "value": "103 % of control"}, {"measurement": "T/C", "setting": "endpoint: mean survival time, dose: 5.5 mg/kg/injection, schedule: Q07DX006 (ip), vehicle: carboxymethylcellulose (CMC)", "value": "111 % of control"}, {"measurement": "T/C", "setting": "endpoint: mean survival time, dose: 5.6 mg/kg/injection, schedule: Q01DX Z (ip), vehicle: methylcellulose (MC)", "value": "120 % of control"}, {"measurement": "T/C", "setting": "endpoint: mean survival time, dose: 10.0 mg/kg/injection, schedule: Q01DX009 (ip), vehicle: saline", "value": "94 % of control and 102 % of control"}, {"measurement": "T/C", "setting": "endpoint: mean survival time, dose: 10.6 mg/kg/injection, schedule: Q01DX Z (ip), vehicle: carboxymethylcellulose (CMC)", "value": "108 % of control and 117 % of control"}, {"measurement": "T/C", "setting": "endpoint: mean survival time, dose: 10.66 mg/kg/injection, schedule: Q#B X Z (ip), vehicle: carboxymethylcellulose (CMC)", "value": "86 % of control"}, {"measurement": "T/C", "setting": "endpoint: mean survival time, dose: 10.9 mg/kg/injection, schedule: Q07DX006 (ip), vehicle: carboxymethylcellulose (CMC)", "value": "90 % of control"}, {"measurement": "T/C", "setting": "endpoint: mean survival time, dose: 11.25 mg/kg/injection, schedule: Q01DX Z (ip), vehicle: methylcellulose (MC)", "value": "115 % of control"}, {"measurement": "T/C", "setting": "endpoint: mean survival time, dose: 12.0 mg/kg/injection, schedule: Q01DX006 (iv), vehicle: carboxymethylcellulose (CMC)", "value": "113 % of control"}, {"measurement": "T/C", "setting": "endpoint: mean survival time, dose: 12.0 mg/kg/injection, schedule: Q01DX Z (im), vehicle: carboxymethylcellulose (CMC)", "value": "101 % of control"}, {"measurement": "T/C", "setting": "endpoint: mean survival time, dose: 12.0 mg/kg/injection, schedule: Q01DX Z (ip), vehicle: carboxymethylcellulose (CMC)", "value": "95 % of control"}, {"measurement": "T/C", "setting": "endpoint: mean survival time, dose: 12.0 mg/kg/injection, schedule: Q01DX Z (sc), vehicle: carboxymethylcellulose (CMC)", "value": "94 % of control"}, {"measurement": "T/C", "setting": "endpoint: mean survival time, dose: 12.5 mg/kg/injection, schedule: Q01DX Z (oral), vehicle: carboxymethylcellulose (CMC)", "value": "110 % of control"}, {"measurement": "T/C", "setting": "endpoint: mean survival time, dose: 16.0 mg/kg/injection, schedule: Q01DX Z (ip), vehicle: carboxymethylcellulose (CMC)", "value": "111 % of control"}, {"measurement": "T/C", "setting": "endpoint: mean survival time, dose: 18.0 mg/kg/injection, schedule: Q01DX009 (ip), vehicle: saline", "value": "155 % of control and 158 % of control"}, {"measurement": "T/C", "setting": "endpoint: mean survival time, dose: 20.0 mg/kg/injection, schedule: Q01DX009 (ip), vehicle: saline", "value": "103 % of control and 108 % of control"}, {"measurement": "T/C", "setting": "endpoint: mean survival time, dose: 21.8 mg/kg/injection, schedule: Q07DX006 (ip), vehicle: carboxymethylcellulose (CMC)", "value": "106 % of control"}, {"measurement": "T/C", "setting": "endpoint: mean survival time, dose: 24.0 mg/kg/injection, schedule: Q01DX Z (ip), vehicle: carboxymethylcellulose (CMC)", "value": "111 % of control"}, {"measurement": "T/C", "setting": "endpoint: mean survival time, dose: 25.0 mg/kg/injection, schedule: Q01DX001 (ip), vehicle: saline", "value": "99 % of control and 106 % of control and 111 % of control"}, {"measurement": "T/C", "setting": "endpoint: mean survival time, dose: 25.0 mg/kg/injection, schedule: Q01DX006 (iv), vehicle: carboxymethylcellulose (CMC)", "value": "94 % of control"}, {"measurement": "T/C", "setting": "endpoint: mean survival time, dose: 25.0 mg/kg/injection, schedule: Q01DX Z (im), vehicle: carboxymethylcellulose (CMC)", "value": "94 % of control"}, {"measurement": "T/C", "setting": "endpoint: mean survival time, dose: 25.0 mg/kg/injection, schedule: Q01DX Z (ip), vehicle: carboxymethylcellulose (CMC)", "value": "98 % of control"}, {"measurement": "T/C", "setting": "endpoint: mean survival time, dose: 25.0 mg/kg/injection, schedule: Q01DX Z (oral), vehicle: carboxymethylcellulose (CMC)", "value": "120 % of control"}, {"measurement": "T/C", "setting": "endpoint: mean survival time, dose: 25.0 mg/kg/injection, schedule: Q01DX Z (sc), vehicle: carboxymethylcellulose (CMC)", "value": "103 % of control"}, {"measurement": "T/C", "setting": "endpoint: mean survival time, dose: 36.0 mg/kg/injection, schedule: Q01DX009 (ip), vehicle: saline", "value": "160 % of control and 186 % of control"}, {"measurement": "T/C", "setting": "endpoint: mean survival time, dose: 36.0 mg/kg/injection, schedule: Q01DX Z (ip), vehicle: carboxymethylcellulose (CMC)", "value": "150 % of control"}, {"measurement": "T/C", "setting": "endpoint: mean survival time, dose: 37.0 mg/kg/injection, schedule: Q03DX008 (ip), vehicle: carboxymethylcellulose (CMC)", "value": "104 % of control"}, {"measurement": "T/C", "setting": "endpoint: mean survival time, dose: 45.0 mg/kg/injection, schedule: Q01DX Z (ip), vehicle: methylcellulose (MC)", "value": "172 % of control"}, {"measurement": "T/C", "setting": "endpoint: mean survival time, dose: 50.0 mg/kg/injection, schedule: Q01DX001 (ip), vehicle: saline", "value": "110 % of control and 111 % of control and 116 % of control"}, {"measurement": "T/C", "setting": "endpoint: mean survival time, dose: 50.0 mg/kg/injection, schedule: Q01DX006 (iv), vehicle: carboxymethylcellulose (CMC)", "value": "113 % of control"}, {"measurement": "T/C", "setting": "endpoint: mean survival time, dose: 50.0 mg/kg/injection, schedule: Q01DX Z (im), vehicle: carboxymethylcellulose (CMC)", "value": "110 % of control"}, {"measurement": "T/C", "setting": "endpoint: mean survival time, dose: 50.0 mg/kg/injection, schedule: Q01DX Z (ip), vehicle: carboxymethylcellulose (CMC)", "value": "123 % of control"}, {"measurement": "T/C", "setting": "endpoint: mean survival time, dose: 50.0 mg/kg/injection, schedule: Q01DX Z (sc), vehicle: carboxymethylcellulose (CMC)", "value": "116 % of control"}, {"measurement": "T/C", "setting": "endpoint: mean survival time, dose: 54.0 mg/kg/injection, schedule: Q01DX009 (ip), vehicle: saline", "value": "183 % of control and 208 % of control"}, {"measurement": "T/C", "setting": "endpoint: mean survival time, dose: 81.0 mg/kg/injection, schedule: Q01DX Z (ip), vehicle: carboxymethylcellulose (CMC)", "value": "117 % of control"}, {"measurement": "T/C", "setting": "endpoint: mean survival time, dose: 90.0 mg/kg/injection, schedule: Q01DX Z (ip), vehicle: methylcellulose (MC)", "value": "155 % of control"}, {"measurement": "T/C", "setting": "endpoint: mean survival time, dose: 100.0 mg/kg/injection, schedule: Q01DX001 (ip), vehicle: carboxymethylcellulose (CMC)", "value": "103 % of control and 110 % of control"}, {"measurement": "T/C", "setting": "endpoint: mean survival time, dose: 100.0 mg/kg/injection, schedule: Q01DX001 (ip), vehicle: saline", "value": "121 % of control"}, {"measurement": "T/C", "setting": "endpoint: mean survival time, dose: 100.0 mg/kg/injection, schedule: Q01DX006 (iv), vehicle: carboxymethylcellulose (CMC)", "value": "123 % of control"}, {"measurement": "T/C", "setting": "endpoint: mean survival time, dose: 100.0 mg/kg/injection, schedule: Q01DX Z (ip), vehicle: carboxymethylcellulose (CMC)", "value": "155 % of control"}, {"measurement": "T/C", "setting": "endpoint: mean survival time, dose: 100.0 mg/kg/injection, schedule: Q01DX Z (oral), vehicle: carboxymethylcellulose (CMC)", "value": "162 % of control"}, {"measurement": "T/C", "setting": "endpoint: mean survival time, dose: 100.0 mg/kg/injection, schedule: Q04DX003 (ip), vehicle: saline", "value": "111 % of control"}, {"measurement": "T/C", "setting": "endpoint: mean survival time, dose: 120.0 mg/kg/injection, schedule: Q01DX009 (ip), vehicle: saline", "value": "202 % of control and 218 % of control"}, {"measurement": "T/C", "setting": "endpoint: mean survival time, dose: 150.0 mg/kg/injection, schedule: Q03DX008 (ip), vehicle: carboxymethylcellulose (CMC)", "value": "205 % of control"}, {"measurement": "T/C", "setting": "endpoint: mean survival time, dose: 200.0 mg/kg/injection, schedule: Q01DX001 (ip), vehicle: carboxymethylcellulose (CMC)", "value": "108 % of control and 124 % of control"}, {"measurement": "T/C", "setting": "endpoint: mean survival time, dose: 200.0 mg/kg/injection, schedule: Q01DX Z (im), vehicle: carboxymethylcellulose (CMC)", "value": "158 % of control"}, {"measurement": "T/C", "setting": "endpoint: mean survival time, dose: 200.0 mg/kg/injection, schedule: Q01DX Z (ip), vehicle: carboxymethylcellulose (CMC)", "value": "162 % of control"}, {"measurement": "T/C", "setting": "endpoint: mean survival time, dose: 200.0 mg/kg/injection, schedule: Q01DX Z (oral), vehicle: carboxymethylcellulose (CMC)", "value": "90 % of control"}, {"measurement": "T/C", "setting": "endpoint: mean survival time, dose: 200.0 mg/kg/injection, schedule: Q01DX Z (sc), vehicle: carboxymethylcellulose (CMC)", "value": "158 % of control"}, {"measurement": "T/C", "setting": "endpoint: mean survival time, dose: 300.0 mg/kg/injection, schedule: Q03DX008 (ip), vehicle: carboxymethylcellulose (CMC)", "value": "181 % of control"}, {"measurement": "T/C", "setting": "endpoint: mean survival time, dose: 350.0 mg/kg/injection, schedule: Q07DX004 (ip), vehicle: carboxymethylcellulose (CMC)", "value": "215 % of control"}, {"measurement": "T/C", "setting": "endpoint: mean survival time, dose: 400.0 mg/kg/injection, schedule: Q01DX001 (ip), vehicle: carboxymethylcellulose (CMC)", "value": "102 % of control"}, {"measurement": "T/C", "setting": "endpoint: mean survival time, dose: 400.0 mg/kg/injection, schedule: Q01DX001 (ip), vehicle: saline", "value": "114 % of control"}, {"measurement": "T/C", "setting": "endpoint: mean survival time, dose: 400.0 mg/kg/injection, schedule: Q01DX Z (im), vehicle: carboxymethylcellulose (CMC)", "value": "100 % of control"}, {"measurement": "T/C", "setting": "endpoint: mean survival time, dose: 400.0 mg/kg/injection, schedule: Q01DX Z (ip), vehicle: carboxymethylcellulose (CMC)", "value": "94 % of control"}, {"measurement": "T/C", "setting": "endpoint: mean survival time, dose: 400.0 mg/kg/injection, schedule: Q01DX Z (sc), vehicle: carboxymethylcellulose (CMC)", "value": "98 % of control"}, {"measurement": "T/C", "setting": "endpoint: mean survival time, dose: 400.0 mg/kg/injection, schedule: Q04DX003 (ip), vehicle: saline", "value": "153 % of control and 180 % of control"}, {"measurement": "T/C", "setting": "endpoint: mean survival time, dose: 600.0 mg/kg/injection, schedule: Q03DX003 (ip), vehicle: carboxymethylcellulose (CMC)", "value": "90 % of control"}, {"measurement": "T/C", "setting": "endpoint: mean survival time, dose: 700.0 mg/kg/injection, schedule: Q07DX004 (ip), vehicle: carboxymethylcellulose (CMC)", "value": "100 % of control"}, {"measurement": "T/C", "setting": "endpoint: mean survival time, dose: 800.0 mg/kg/injection, schedule: Q01DX001 (ip), vehicle: carboxymethylcellulose (CMC)", "value": "98 % of control and 116 % of control"}, {"measurement": "T/C", "setting": "endpoint: median survival time, dose: 10.0 mg/kg/injection, schedule: Q01DX009 (ip), vehicle: saline", "value": "105 % of control and 87 % of control"}, {"measurement": "T/C", "setting": "endpoint: median survival time, dose: 40.0 mg/kg/injection, schedule: Q01DX009 (ip), vehicle: saline", "value": "150 % of control"}, {"measurement": "T/C", "setting": "endpoint: median survival time, dose: 80.0 mg/kg/injection, schedule: Q01DX009 (ip), vehicle: saline", "value": "181 % of control and 183 % of control"}]}]}
